# From ChEMBL document CHEMBL3885861, “Open TG-GATES”
# Organism: Rattus norvegicus
# Experiment: Open TG-GATES - Regimen: Single
# Type: toxicity, organism-based, Sprague-Dawley
# Set-up: regimen Single, gender Male, age 6 weeks
# Conditions: in vivo, po, 1000 mg/kg, route gavage, dose level High; for APTT / Bas / Eos / Fbg / Hb / Ht / Lym / MCH / MCHC / MCV / Mono / Neu / PT / Plat / RBC / Ret / WBC: tissue Blood; for KIDNEY_L / KIDNEY_R / KIDNEY_TOTAL: tissue Kidney; for LIVER: tissue Liver; for A/G / ALP / ALT / AST / BUN / CRE / Ca / Cl / DBIL / GLC / IP / K / LDH / Na / PL / RALB / TBIL / TC / TG / TP / gamma-GTP: tissue Plasma
smiles,measurement,setting,value
CC(S)C(=O)NCC(=O)O (configuration not stated) [TIOPRONIN],TERMINAL_BW,3 h,213.5 g
same,APTT,3 h,23 s
same,Bas,3 h,0%
same,Eos,3 h,0.4%
same,Fbg,3 h,307.8 mg/dL
same,Hb,3 h,13 g/dL
same,Ht,3 h,40.2%
same,Lym,3 h,75.8%
same,MCH,3 h,20.5 pg
same,MCHC,3 h,32.3%
same,MCV,3 h,63.5 fL
same,Mono,3 h,4%
same,Neu,3 h,18%
same,PT,3 h,17.1 s
same,Plat,3 h,120.4 x10_4/uL
same,RBC,3 h,633.8 x10_4/ul
same,Ret,3 h,8%
same,WBC,3 h,75.4 x10_2/uL
same,KIDNEY_L,3 h,0.9 g
same,KIDNEY_R,3 h,0.9 g
same,KIDNEY_TOTAL,3 h,1.8 g
same,LIVER,3 h,9.2 g
same,A/G,3 h,1.1
same,ALP,3 h,1422.8 IU/L
same,ALT,3 h,95.4 IU/L
same,AST,3 h,90 IU/L
same,BUN,3 h,11.2 mg/dL
same,CRE,3 h,0.1 mg/dL
same,Ca,3 h,10.4 mg/dL
same,Cl,3 h,106.8 meq/L
same,DBIL,3 h,0 mg/dL
same,GLC,3 h,199.4 mg/dL
same,IP,3 h,9.1 mg/dL
same,K,3 h,4 meq/L
same,LDH,3 h,232.2 IU/L
same,Na,3 h,141.4 meq/L
same,PL,3 h,115.4 mg/dL
same,RALB,3 h,2.8 g/dL
same,TBIL,3 h,0.008 mg/dL
same,TC,3 h,69 mg/dL
same,TG,3 h,52.8 mg/dL
same,TP,3 h,5.3 g/dL
same,gamma-GTP,3 h,1.8 IU/L
same,TERMINAL_BW,6 h,211.1 g
same,APTT,6 h,23.4 s
same,Bas,6 h,0%
same,Eos,6 h,0.4%
same,Fbg,6 h,291.4 mg/dL
same,Hb,6 h,12.9 g/dL
same,Ht,6 h,39.5%
same,Lym,6 h,76.2%
same,MCH,6 h,20.3 pg
same,MCHC,6 h,32.6%
same,MCV,6 h,62.4 fL
same,Mono,6 h,3.2%
same,Neu,6 h,18.6%
same,PT,6 h,17.6 s
same,Plat,6 h,120 x10_4/uL
same,RBC,6 h,632.6 x10_4/ul
same,Ret,6 h,8.1%
same,WBC,6 h,99 x10_2/uL
same,KIDNEY_L,6 h,0.9 g
same,KIDNEY_R,6 h,0.9 g
same,KIDNEY_TOTAL,6 h,1.9 g
same,LIVER,6 h,8.2 g
same,A/G,6 h,1.2
same,ALP,6 h,1452 IU/L
same,ALT,6 h,77.2 IU/L
same,AST,6 h,78 IU/L
same,BUN,6 h,9 mg/dL
same,CRE,6 h,0.1 mg/dL
same,Ca,6 h,10.3 mg/dL
same,Cl,6 h,107 meq/L
same,DBIL,6 h,0.002 mg/dL
same,GLC,6 h,196 mg/dL
same,IP,6 h,9.3 mg/dL
same,K,6 h,4.1 meq/L
same,LDH,6 h,147.4 IU/L
same,Na,6 h,140.4 meq/L
same,PL,6 h,100.4 mg/dL
same,RALB,6 h,2.8 g/dL
same,TBIL,6 h,0.016 mg/dL
same,TC,6 h,59.8 mg/dL
same,TG,6 h,31.6 mg/dL
same,TP,6 h,5.2 g/dL
same,gamma-GTP,6 h,1.8 IU/L
same,TERMINAL_BW,9 h,211.2 g
same,APTT,9 h,23.6 s
same,Bas,9 h,0%
same,Eos,9 h,0.2%
same,Fbg,9 h,271.2 mg/dL
same,Hb,9 h,12.6 g/dL
same,Ht,9 h,39.2%
same,Lym,9 h,74.6%
same,MCH,9 h,20.3 pg
same,MCHC,9 h,32%
same,MCV,9 h,63.2 fL
same,Mono,9 h,1.4%
same,Neu,9 h,23.4%
same,PT,9 h,17.6 s
same,Plat,9 h,123.5 x10_4/uL
same,RBC,9 h,621.6 x10_4/ul
same,Ret,9 h,7.4%
same,WBC,9 h,71.9 x10_2/uL
same,KIDNEY_L,9 h,1 g
same,KIDNEY_R,9 h,1 g
same,KIDNEY_TOTAL,9 h,1.9 g
same,LIVER,9 h,7.8 g
same,A/G,9 h,1.2
same,ALP,9 h,1385.8 IU/L
same,ALT,9 h,69.4 IU/L
same,AST,9 h,80.6 IU/L
same,BUN,9 h,9.4 mg/dL
same,CRE,9 h,0.1 mg/dL
same,Ca,9 h,10.5 mg/dL
same,Cl,9 h,106.8 meq/L
same,DBIL,9 h,0.006 mg/dL
same,GLC,9 h,188.2 mg/dL
same,IP,9 h,9.1 mg/dL
same,K,9 h,4.3 meq/L
same,LDH,9 h,160.4 IU/L
same,Na,9 h,140.8 meq/L
same,PL,9 h,98.6 mg/dL
same,RALB,9 h,2.8 g/dL
same,TBIL,9 h,0.018 mg/dL
same,TC,9 h,55.6 mg/dL
same,TG,9 h,40.4 mg/dL
same,TP,9 h,5.2 g/dL
same,gamma-GTP,9 h,1.2 IU/L
same,TERMINAL_BW,24 h,228 g
same,APTT,24 h,22.3 s
same,Bas,24 h,0%
same,Eos,24 h,1%
same,Fbg,24 h,307.2 mg/dL
same,Hb,24 h,12.8 g/dL
same,Ht,24 h,39.1%
same,Lym,24 h,76.8%
same,MCH,24 h,20.2 pg
same,MCHC,24 h,32.6%
same,MCV,24 h,62.1 fL
same,Mono,24 h,3.2%
same,Neu,24 h,18%
same,PT,24 h,16.2 s
same,Plat,24 h,115.2 x10_4/uL
same,RBC,24 h,630.2 x10_4/ul
same,Ret,24 h,7.7%
same,WBC,24 h,117.2 x10_2/uL
same,KIDNEY_L,24 h,1 g
same,KIDNEY_R,24 h,1 g
same,KIDNEY_TOTAL,24 h,2 g
same,LIVER,24 h,10.2 g
same,A/G,24 h,1.2
same,ALP,24 h,1503 IU/L
same,ALT,24 h,47 IU/L
same,AST,24 h,76.6 IU/L
same,BUN,24 h,16.2 mg/dL
same,CRE,24 h,0.2 mg/dL
same,Ca,24 h,10.8 mg/dL
same,Cl,24 h,107.4 meq/L
same,DBIL,24 h,0 mg/dL
same,GLC,24 h,181.6 mg/dL
same,IP,24 h,7.4 mg/dL
same,K,24 h,4.6 meq/L
same,LDH,24 h,176.2 IU/L
same,Na,24 h,142.6 meq/L
same,PL,24 h,138.8 mg/dL
same,RALB,24 h,2.9 g/dL
same,TBIL,24 h,0.008 mg/dL
same,TC,24 h,76.8 mg/dL
same,TG,24 h,117 mg/dL
same,TP,24 h,5.4 g/dL
same,gamma-GTP,24 h,1.4 IU/L
